Results as given in patent publication US20250179103A1, “6-OXODECAHYDROPYRROLO[1,2-A][1,5]DIAZOCINE AND 6-OXODECAHYDRO-4H-PYRROLO[2,1-D][1,5]THIAZOCINE DERIVATIVES AS STAT3 AND STAT6 MODULATORS FOR THE TREATMENT OF CANCER AND INFLAMMATORY CONDITIONS” (Recludix Pharma, Inc., priority 2022, published 2025).

Key:
[1] = target: T1, Recombinant STAT6 protein (STAT6(W123-T658)) (Homo sapiens, UniProt P42226); assay: STAT6 Fluorescence Polarization (FP) Assay; assay type: binding; details: STAT6(W123-T658) 250 nM, probe 5-FAM-ApYKPFQDLI-NH2 2 nM, 45-minute incubation
T1 construct: Recombinant STAT6 protein (STAT6(W123-T658))
T1 sequence (P42226 123-658): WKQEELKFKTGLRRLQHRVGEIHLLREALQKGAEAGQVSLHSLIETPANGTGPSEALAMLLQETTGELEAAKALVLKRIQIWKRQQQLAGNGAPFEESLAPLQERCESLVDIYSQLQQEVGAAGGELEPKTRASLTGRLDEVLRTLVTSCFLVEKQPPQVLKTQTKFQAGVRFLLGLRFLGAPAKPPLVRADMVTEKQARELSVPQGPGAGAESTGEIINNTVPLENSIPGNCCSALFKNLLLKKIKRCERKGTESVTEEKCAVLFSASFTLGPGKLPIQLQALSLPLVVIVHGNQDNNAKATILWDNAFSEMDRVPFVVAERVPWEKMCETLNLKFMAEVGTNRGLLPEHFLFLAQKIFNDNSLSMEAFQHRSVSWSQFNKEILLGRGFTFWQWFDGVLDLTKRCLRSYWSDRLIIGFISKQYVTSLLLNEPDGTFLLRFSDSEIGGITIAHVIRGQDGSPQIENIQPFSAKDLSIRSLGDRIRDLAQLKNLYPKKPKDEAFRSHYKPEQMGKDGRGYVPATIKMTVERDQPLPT
Outline: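 Displacement of a fluorescent phosphotyrosine peptide (5-FAM-ApYKPFQDLI-NH2, 2 nM) from STAT6(W123-T658) (250 nM), 1% DMSO, pH 7.4 HEPES buffer. After 45 min at room temperature, polarization (mP) was plotted versus log compound concentration and fitted by nonlinear regression to give IC50.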

[2] = target: T2, Recombinant STAT3 protein (STAT3(G127-I722)) (Homo sapiens, UniProt P40763); assay: STAT3 Fluorescence Polarization (FP) Assay; assay type: binding; details: STAT3(G127-I722) 25 nM, probe 5-FAM-GpYLPQTV-NH2 2 nM, 45-minute incubation
T2 construct: Recombinant STAT3 protein (STAT3(G127-I722))
Outline: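 Fluorescence polarization after a 45-min room-temperature incubation measured compound displacement of a 2 nM fluorescein-labelled phosphotyrosine peptide (5-FAM-GpYLPQTV-NH2) from 25 nM recombinant STAT3(G127-I722). Buffer was 10 mM HEPES pH 7.4 with 1% DMSO final. IC50s were fitted by nonlinear regression of mP against log concentration.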

T2 sequence (P40763 127-722): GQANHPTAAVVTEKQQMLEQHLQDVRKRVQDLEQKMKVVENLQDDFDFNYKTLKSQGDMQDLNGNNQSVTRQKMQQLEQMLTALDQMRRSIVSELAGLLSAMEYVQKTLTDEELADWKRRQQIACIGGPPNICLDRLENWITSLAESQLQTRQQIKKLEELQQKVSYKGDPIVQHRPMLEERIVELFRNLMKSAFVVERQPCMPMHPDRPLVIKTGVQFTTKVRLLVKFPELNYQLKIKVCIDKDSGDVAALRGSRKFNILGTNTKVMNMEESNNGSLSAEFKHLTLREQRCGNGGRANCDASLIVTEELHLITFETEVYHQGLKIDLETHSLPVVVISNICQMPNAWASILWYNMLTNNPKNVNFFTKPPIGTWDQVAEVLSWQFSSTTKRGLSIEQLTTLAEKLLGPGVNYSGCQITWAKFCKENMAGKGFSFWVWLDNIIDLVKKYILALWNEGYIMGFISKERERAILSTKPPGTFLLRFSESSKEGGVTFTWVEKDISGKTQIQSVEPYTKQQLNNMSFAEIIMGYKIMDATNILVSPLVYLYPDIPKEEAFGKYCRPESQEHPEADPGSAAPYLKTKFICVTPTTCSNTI

Row | IC50 [1] | IC50 [2] | SMILES
1 | 300 to 3000 nM | 1000 to 10000 nM | CC(=O)N1CC[C@H]2CC[C@@H](C(=O)Nc3ccc4c(cnn4C)c3)N2C(=O)[C@@H](NC(=O)c2cc3cc(C(F)(F)P(=O)(O)O)ccc3s2)C1 [Compound 161, ((2-(((5S,8S,10aR)-3-acetyl-8-((1-methyl-1H-indazol-5-yl)carbamoyl)-6-oxodecahydropyrrolo[1,2-a][1,5]diazocin-5-yl)carbamoyl)benzo[b]thiophen-5-yl)difluoromethyl)phosphonic acid]
2 | 300 to 3000 nM | 1000 to 10000 nM | CC(=O)N1CC[C@H]2CC[C@@H](C(=O)N3CCC[C@H]3c3ccccc3)N2C(=O)[C@@H](NC(=O)c2cc3cc(C(F)(F)P(=O)(O)O)ccc3[nH]2)C1 [Compound 162, ((2-(((5S,8S,10aR)-3-acetyl-6-oxo-8-((S)-2-phenylpyrrolidine-1-carbonyl)decahydropyrrolo[1,2-a][1,5]diazocin-5-yl)carbamoyl)-1H-indol-5-yl)difluoromethyl)phosphonic acid]
3 | 300 to 3000 nM | 1000 to 10000 nM | CC(=O)N1CC[C@H]2CC[C@@H](C(=O)N3CCC[C@H]3Cc3ccccc3)N2C(=O)[C@@H](NC(=O)c2cc3cc(C(F)(F)P(=O)(O)O)ccc3[nH]2)C1 [Compound 163, ((2-(((5S,8S,10aR)-3-acetyl-8-((S)-2-benzylpyrrolidine-1-carbonyl)-6-oxodecahydropyrrolo[1,2-a][1,5]diazocin-5-yl)carbamoyl)-1H-indol-5-yl)difluoromethyl)phosphonic acid]
4 | 300 to 3000 nM | 1000 to 10000 nM | COc1ccccc1N(C)C(=O)[C@@H]1CC[C@@H]2CCN(C(C)=O)C[C@H](NC(=O)c3cc4cc(C(F)(F)P(=O)(O)O)ccc4[nH]3)C(=O)N21 [Compound 164, ((2-(((5S,8S,10aR)-3-acetyl-8-((2-methoxyphenyl)(methyl)carbamoyl)-6-oxodecahydropyrrolo[1,2-a][1,5]diazocin-5-yl)carbamoyl)-1H-indol-5-yl)difluoromethyl)phosphonic acid]
5 | 300 to 3000 nM | 1000 to 10000 nM | COc1cccc(N(C)C(=O)[C@@H]2CC[C@@H]3CCN(C(C)=O)C[C@H](NC(=O)c4cc5cc(C(F)(F)P(=O)(O)O)ccc5[nH]4)C(=O)N32)c1 [Compound 165, ((2-(((5S,8S,10aR)-3-acetyl-8-((3-methoxyphenyl)(methyl)carbamoyl)-6-oxodecahydropyrrolo[1,2-a][1,5]diazocin-5-yl)carbamoyl)-1H-indol-5-yl)difluoromethyl)phosphonic acid]
6 | 300 to 3000 nM | 1000 to 10000 nM | COc1ccc(N(C)C(=O)[C@@H]2CC[C@@H]3CCN(C(C)=O)C[C@H](NC(=O)c4cc5cc(C(F)(F)P(=O)(O)O)ccc5[nH]4)C(=O)N32)cc1 [Compound 166, ((2-(((5S,8S,10aR)-3-acetyl-8-((4-methoxyphenyl)(methyl)carbamoyl)-6-oxodecahydropyrrolo[1,2-a][1,5]diazocin-5-yl)carbamoyl)-1H-indol-5-yl)difluoromethyl)phosphonic acid]
7 | 300 to 3000 nM | 1000 to 10000 nM | CC(=O)N1CC[C@H]2CC[C@@H](C(=O)N(C)c3cccc(C#N)c3)N2C(=O)[C@@H](NC(=O)c2cc3cc(C(F)(F)P(=O)(O)O)ccc3[nH]2)C1 [Compound 167, ((2-(((5S,8S,10aR)-3-acetyl-8-((3-cyanophenyl)(methyl)carbamoyl)-6-oxodecahydropyrrolo[1,2-a][1,5]diazocin-5-yl)carbamoyl)-1H-indol-5-yl)difluoromethyl)phosphonic acid]
8 | 300 to 3000 nM | 1000 to 10000 nM | CC(=O)N1CC[C@H]2CC[C@@H](C(=O)N(C)c3ccc(C#N)cc3)N2C(=O)[C@@H](NC(=O)c2cc3cc(C(F)(F)P(=O)(O)O)ccc3[nH]2)C1 [Compound 168, ((2-(((5S,8S,10aR)-3-acetyl-8-((4-cyanophenyl)(methyl)carbamoyl)-6-oxodecahydropyrrolo[1,2-a][1,5]diazocin-5-yl)carbamoyl)-1H-indol-5-yl)difluoromethyl)phosphonic acid]
9 | 300 to 3000 nM | 1000 to 10000 nM | CCN(C(=O)[C@@H]1CC[C@@H]2CCN(C(C)=O)C[C@H](NC(=O)c3cc4cc(C(F)(F)P(=O)(O)O)ccc4[nH]3)C(=O)N21)c1ccccc1 [Compound 169, ((2-(((5S,8S,10aR)-3-acetyl-8-(ethyl(phenyl)carbamoyl)-6-oxodecahydropyrrolo[1,2-a][1,5]diazocin-5-yl)carbamoyl)-1H-indol-5-yl)difluoromethyl)phosphonic acid]
10 | 300 to 3000 nM | 1000 to 10000 nM | CC(=O)N1CC(N(C)C(=O)[C@@H]2CC[C@@H]3CCN(C(C)=O)C[C@H](NC(=O)c4cc5cc(C(F)(F)P(=O)(O)O)ccc5[nH]4)C(=O)N32)C1 [Compound 170, ((2-(((5S,8S,10aR)-3-acetyl-8-((1-acetylazetidin-3-yl)(methyl)carbamoyl)-6-oxodecahydropyrrolo[1,2-a][1,5]diazocin-5-yl)carbamoyl)-1H-indol-5-yl)difluoromethyl)phosphonic acid]
11 | 300 to 3000 nM | 1000 to 10000 nM | CC(=O)N1CC(N(C)C(=O)[C@@H]2CC[C@@H]3CCN(C(C)=O)C[C@H](NC(=O)c4cc5cc(C(F)(F)P(=O)(O)O)ccc5s4)C(=O)N32)C1 [Compound 171, ((2-(((5S,8S,10aR)-3-acetyl-8-((1-acetylazetidin-3-yl)(methyl)carbamoyl)-6-oxodecahydropyrrolo[1,2-a][1,5]diazocin-5-yl)carbamoyl)benzo[b]thiophen-5-yl)difluoromethyl)phosphonic acid]
12 | 300 to 3000 nM | 1000 to 10000 nM | CC(=O)N1CC[C@H]2CC[C@@H](C(=O)Nc3ccc4ncncc4c3)N2C(=O)[C@@H](NC(=O)c2cc3cc(C(F)(F)P(=O)(O)O)ccc3s2)C1 [Compound 172, ((2-(((5S,8S,10aR)-3-acetyl-6-oxo-8-(quinazolin-6-ylcarbamoyl)decahydropyrrolo[1,2-a][1,5]diazocin-5-yl)carbamoyl)benzo[b]thiophen-5-yl)difluoromethyl)phosphonic acid]
13 | 300 to 3000 nM | 100 to 1000 nM | CC(=O)N1CC[C@H]2CC[C@@H](C(=O)Nc3ccc4ccccc4c3)N2C(=O)[C@@H](NC(=O)c2cc3cc(C(F)(F)P(=O)(O)O)ccc3s2)C1 [Compound 173, ((2-(((5S,8S,10aR)-3-acetyl-8-(naphthalen-2-ylcarbamoyl)-6-oxodecahydropyrrolo[1,2-a][1,5]diazocin-5-yl)carbamoyl)benzo[b]thiophen-5-yl)difluoromethyl)phosphonic acid]
14 | ≤ 300 nM | 100 to 1000 nM | CC(=O)N1CC[C@H]2CC[C@@H](C(=O)Nc3ccc4nnccc4c3)N2C(=O)[C@@H](NC(=O)c2cc3cc(C(F)(F)P(=O)(O)O)ccc3s2)C1 [Compound 174, ((2-(((5S,8S,10aR)-3-acetyl-8-(cinnolin-6-ylcarbamoyl)-6-oxodecahydropyrrolo[1,2-a][1,5]diazocin-5-yl)carbamoyl)benzo[b]thiophen-5-yl)difluoromethyl)phosphonic acid]
15 | 300 to 3000 nM | 100 to 1000 nM | CC(=O)N1CC[C@H]2CC[C@@H](C(=O)Nc3ccc4[nH]ncc4c3)N2C(=O)[C@@H](NC(=O)c2cc3cc(C(F)(F)P(=O)(O)O)ccc3s2)C1 [Compound 175, ((2-(((5S,8S,10aR)-8-((1H-indazol-5-yl)carbamoyl)-3-acetyl-6-oxodecahydropyrrolo[1,2-a][1,5]diazocin-5-yl)carbamoyl)benzo[b]thiophen-5-yl)difluoromethyl)phosphonic acid]
16 | 300 to 3000 nM | 100 to 1000 nM | CC(=O)N1CC[C@H]2CC[C@@H](C(=O)Nc3ccc(-c4ccccc4)cc3CC#N)N2C(=O)[C@@H](NC(=O)c2cc3cc(C(F)(F)P(=O)(O)O)ccc3s2)C1 [Compound 176, ((2-(((5S,8S,10aR)-3-acetyl-8-((3-(cyanomethyl)-[1,1′-biphenyl]-4-yl)carbamoyl)-6-oxodecahydropyrrolo[1,2-a][1,5]diazocin-5-yl)carbamoyl)benzo[b]thiophen-5-yl)difluoromethyl)phosphonic acid]
17 | 300 to 3000 nM | ≤ 100 nM | CC(=O)N1CC[C@H]2CC[C@@H](C(=O)Nc3ccc(-c4ccccc4)cc3CC(N)=O)N2C(=O)[C@@H](NC(=O)c2cc3cc(C(F)(F)P(=O)(O)O)ccc3s2)C1 [Compound 177, ((2-(((5S,8S,10aR)-3-acetyl-8-((3-(2-amino-2-oxoethyl)-[1,1′-biphenyl]-4-yl)carbamoyl)-6-oxodecahydropyrrolo[1,2-a][1,5]diazocin-5-yl)carbamoyl)benzo[b]thiophen-5-yl)difluoromethyl)phosphonic acid]
